Source: patent US20230278972A1, “SUBSTITUTED HALOALKYL SULFONANILIDE HERBICIDES” (FMC Corporation, priority 2020, published 2023)

Legend:
Assay type in all cases: in vivo
[1] = test system: blackgrass (Alopecurus myosuroides); test: Test A1 preemergence, blackgrass
Outline: (§1)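 Both timings started from seed in a loam-sand blend. Preemergence pots got a directed soil application immediately; postemergence pots were sprayed when seedlings had one or two leaves and stood 2–10 cm. Each compound was prepared in a non-phytotoxic solvent plus surfactant.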

[2] = test system: wheat (Triticum aestivum); test: Test A1 preemergence, wheat
Outline: as §1

[3] = test system: horseweed (Erigeron canadensis); test: Test A1 postemergence, horseweed; conditions: for Plant response rating, Horseweed: Postemergence; for Horseweed plant response rating: postemergence
Outline: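 Plants grown in pots of loam/sand mix; preemergence = soil-directed spray on seeded pots, postemergence = spray at 1–2 leaves, height 2–10 cm; test chemicals formulated in non-phytotoxic solvent with surfactant.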

[4] = 31 g ai/ha, 0 to 100 scale (0 no effect, 100 complete control)
[5] = 125 g ai/ha, 0 to 100 scale, 0 no effect, 100 complete control
[6] = 31 g ai/ha, 0 to 100 scale (0 no effect, 100 complete control), 10 days
[7] = 125 g ai/ha, 0 to 100 scale (0 no effect, 100 complete control), 10 days
[8] = 125 g ai/ha, 0 to 100 scale (0 no effect, 100 complete control)

Compound | Plant response rating, Blackgrass [1, 4] | Plant response rating, Blackgrass [1, 5] | Plant response rating, Wheat [2, 4] | Plant response rating, Wheat [2, 5] | Plant response rating, Horseweed [3, 6] | Plant response rating, Horseweed ([3]; 125 g ai/ha, 0 to 100 scale) | Horseweed plant response rating [3, 4] | Plant response rating, Horseweed [3, 7] | Plant response rating, Wheat [2, 8]
Cc1c(C(=O)N2C[C@@H](C)O[C@H](C)C2)cc(N(COC(=O)C(C)(C)C)S(=O)(=O)C(F)(F)F)c(C)c1C (relative stereo) [Compound 373] | 30 | 30 | 0 | 20 | – | – | – | – | –
CCOC(=O)N(c1cc(C(=O)N2C[C@@H](C)O[C@H](C)C2)c(C)c(C)c1C)S(=O)(=O)C(F)(F)F (relative stereo) [Compound 374] | 0 | 0 | 0 | 30 | – | – | – | – | –
Cc1c(NS(=O)(=O)C(F)(F)F)cc(C(=O)N2CCSCC2)c(C)c1C [Compound 283] | – | – | 0 | 50 | 70 | 80 | – | – | –
Cc1c(C(=O)N2CCSCC2)cc(N(COC(=O)C(C)(C)C)S(=O)(=O)C(F)(F)F)c(C)c1C [Compound 285] | – | – | 0 | 20 | 70 | 80 | – | – | –
CCOC(=O)N(c1cc(C(=O)N2CCSCC2)c(C)c(C)c1C)S(=O)(=O)C(F)(F)F [Compound 286] | – | – | 0 | 30 | 0 | 60 | – | – | –
COC1CCN(C(=O)c2cc(N(COC(=O)C(C)(C)C)S(=O)(=O)C(F)(F)F)c(C)c(C)c2C)CC1 [Compound 370] | 0 | 0 | 0 | 10 | – | – | – | – | –
C#CCN(C)C(=O)c1cc(N(COC(=O)C(C)(C)C)S(=O)(=O)C(F)(F)F)c(C)c(C)c1C [Compound 371] | 0 | 20 | 0 | 10 | – | – | – | – | –
Cc1cc(C)c(C2=NOC3OCCCC23)cc1NS(=O)(=O)C(F)(F)F (centres unmarked) [Compound 372] | 0 | 40 | 10 | 30 | – | – | 0 | – | –
Cc1ccc(C2=NOC3CCCC23)cc1NS(=O)(=O)C(F)(F)F (centres unmarked) [Compound 377] | – | – | 0 | 20 | – | 80 | 30 | – | –
CCOC(=O)N(c1cc(C2=NOC3CCCC23)c(CC)cc1C)S(=O)(=O)C(F)(F)F (centres unmarked) [Compound 379] | – | – | 0 | 30 | – | 50 | 0 | – | –
Cc1c(NS(=O)(=O)C(F)(F)F)cc(C2=NOC3(CCCC3)C2)c(C)c1C [Compound 380] | – | – | 30 | 90 | – | – | 30 | 80 | –
Cc1c(C2=NOC3(CCCC3)C2)cc(N(COC(=O)C(C)(C)C)S(=O)(=O)C(F)(F)F)c(C)c1C [Compound 382] | – | – | 20 | 20 | – | – | 0 | 50 | –
Cc1cc(C)c(N(COC(=O)C(C)(C)C)S(=O)(=O)C(F)(F)F)cc1C1=NOC(C(C)C)C1 (centres unmarked) [Compound 383] | – | – | 20 | 20 | – | – | 0 | 30 | –
Cc1cc(C)c(N2CC3(CCCCC3)CC2=O)cc1NS(=O)(=O)C(F)(F)F [Compound 392] | 10 | 40 | 0 | 50 | – | – | 0 | 20 | –
Cc1cc(Cl)c(NS(=O)(=O)C(F)(F)F)cc1N1CCC2(CCCCC2)C1=O [Compound 393] | 70 | 90 | 40 | 60 | – | – | 0 | 30 | –
COC1CCC2(CC1)CCN(c1cc(NS(=O)(=O)C(F)(F)F)c(C)cc1C)C2=O (centres unmarked) [Compound 398] | 60 | 90 | 20 | 90 | – | – | 20 | 50 | –
Cc1cc(C)c(N(S(=O)(=O)C(F)(F)F)S(=O)(=O)C(F)(F)F)cc1N1CCC2(CCC(C(F)(F)F)CC2)C1=O (centres unmarked) [Compound 399] | 20 | 60 | 0 | 20 | – | – | 0 | 50 | –
Cc1cc(C)c(N2CCC3(CCC(C(F)(F)F)CC3)C2=O)cc1NS(=O)(=O)C(F)(F)F (centres unmarked) [Compound 400] | 20 | 80 | 10 | 80 | – | – | 30 | 80 | –
Cc1cc(C)c(N(COC(=O)C(C)(C)C)S(=O)(=O)C(F)(F)F)cc1N1CCC2(CCC(C)CC2)C1=O (centres unmarked) [Compound 401] | 0 | 0 | 0 | 0 | – | – | 0 | 0 | –
Cc1cc(C)c(N2CCC3(CCC(C)CC3)C2=O)cc1NS(=O)(=O)C(F)(F)F (centres unmarked) [Compound 402] | 70 | 80 | 30 | 50 | – | – | 20 | 50 | –
Cc1cc(C)c(N(COC(=O)C(C)(C)C)S(=O)(=O)C(F)(F)F)cc1N1CCC2(CCC(C(F)(F)F)CC2)C1=O (centres unmarked) [Compound 403] | 0 | 0 | 0 | 0 | – | – | 0 | 30 | –
Cc1cc(C)c(N2Cc3cccc(C)c3C2=O)cc1NS(=O)(=O)Cl [Compound 408] | 90 | 100 | – | – | – | – | 20 | 70 | 100
COc1cccc2c1C(=O)N(c1cc(N(COC(=O)C(C)(C)C)S(=O)(=O)Cl)c(C)cc1C)C2 [Compound 413] | 20 | 20 | – | – | – | – | 40 | 90 | 0
CCOc1cccc2c1C(=O)N(c1cc(N(COC(=O)C(C)(C)C)S(=O)(=O)Cl)c(C)cc1C)C2 [Compound 414] | – | – | – | – | – | – | 0 | 70 | 0
Cc1cc(C)c(N2Cc3cccc(Br)c3C2=O)cc1NS(=O)(=O)Cl [Compound 415] | – | – | – | – | – | – | 60 | – | 50
